Measured values taken from PMC9549646, “Diversification of phenolic glucosides by two UDP-glucosyltransferases featuring complementary regioselectivity” (Microbial Cell Factories, 2022).

Assays:
[1] = target: T1, Prolyl endopeptidase (PEP) (Elizabethkingia meningoseptica, UniProt P27028); test: chromogenic PEP assay, inhibition rate at […]; format: biochemical
T1 construct: gene f1pep1

[2] = target: T2, UGT85A1 (Arabidopsis thaliana, UniProt Q9SK82); test: in vitro glucosylation by purified enzyme, HPLC ([…] conversion); format: biochemical
T2 construct: N-terminal His6-tagged
T2 sequence (Q9SK82 1-489): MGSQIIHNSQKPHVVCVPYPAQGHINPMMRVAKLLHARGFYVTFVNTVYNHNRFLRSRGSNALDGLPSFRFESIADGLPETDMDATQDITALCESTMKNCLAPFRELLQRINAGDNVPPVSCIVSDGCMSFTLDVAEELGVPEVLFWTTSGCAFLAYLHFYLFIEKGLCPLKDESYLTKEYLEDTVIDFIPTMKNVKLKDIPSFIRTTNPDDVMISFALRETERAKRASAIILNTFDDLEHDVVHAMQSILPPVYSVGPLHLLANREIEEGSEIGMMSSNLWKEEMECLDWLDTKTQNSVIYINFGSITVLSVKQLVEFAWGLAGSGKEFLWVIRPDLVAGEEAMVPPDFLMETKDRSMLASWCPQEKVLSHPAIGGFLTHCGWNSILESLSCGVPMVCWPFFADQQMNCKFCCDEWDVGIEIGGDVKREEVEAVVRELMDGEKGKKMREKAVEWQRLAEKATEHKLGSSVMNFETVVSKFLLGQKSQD

T1 sequence (P27028 21-705): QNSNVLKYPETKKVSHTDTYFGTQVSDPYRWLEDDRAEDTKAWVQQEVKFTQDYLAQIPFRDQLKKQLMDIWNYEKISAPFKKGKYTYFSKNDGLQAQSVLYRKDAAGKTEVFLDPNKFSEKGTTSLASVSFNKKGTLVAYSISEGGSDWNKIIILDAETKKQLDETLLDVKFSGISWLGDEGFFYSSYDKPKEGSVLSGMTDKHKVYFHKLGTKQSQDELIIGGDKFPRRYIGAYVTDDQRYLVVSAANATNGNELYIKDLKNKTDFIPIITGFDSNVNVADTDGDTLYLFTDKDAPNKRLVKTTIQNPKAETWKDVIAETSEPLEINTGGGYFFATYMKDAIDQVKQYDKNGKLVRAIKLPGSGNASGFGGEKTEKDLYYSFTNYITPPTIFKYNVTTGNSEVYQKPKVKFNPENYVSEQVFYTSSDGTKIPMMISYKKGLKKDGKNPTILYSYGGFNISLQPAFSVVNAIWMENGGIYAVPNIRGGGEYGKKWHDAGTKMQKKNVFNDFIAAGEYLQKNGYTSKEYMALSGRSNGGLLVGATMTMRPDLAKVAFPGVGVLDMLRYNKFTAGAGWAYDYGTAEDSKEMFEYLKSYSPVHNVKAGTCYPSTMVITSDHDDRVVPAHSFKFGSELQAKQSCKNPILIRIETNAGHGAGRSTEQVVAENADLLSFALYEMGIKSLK

CC(O[C@@H]1O[C@H](CO)[C@@H](O)[C@H](O)[C@H]1O)c1cccc(O)c1 (stereo partly shown) [14b]
inhibition at 500 µM [1]: > 50%

OC[C@H]1O[C@@H](OCc2cccc(O)c2)[C@H](O)[C@@H](O)[C@@H]1O [12b]
inhibition at 500 µM [1]: > 50%

OCc1ccc(O)cc1 [compound 1, p-hydroxybenzyl alcohol]
in vitro glucosylation by purified enzyme, HPLC (98.9% conversion) [2]: UGT85A1 showed higher selectivity than RrUGT17, producing only the alcoholic glucoside 1b

CC(O[C@@H]1O[C@H](CO)[C@@H](O)[C@H](O)[C@H]1O)c1ccc(O)cc1 (stereo partly shown) [13b]
inhibition at 500 µM [1]: > 50%
